Three molecules from paper PMC10907603, “MFSD7c functions as a transporter of choline at the blood–brain barrier” (Cell Research, 2024) can be followed below.

Common to all, as to experiment: [3H]choline uptake in transfected HEK293 cells
Assay type in all cases: cell-based

The target in one data set is T1, DaMfsd7c_b (Danio rerio, UniProt A0A8M9Q308).
T1 construct: gene flvcr2b
T1 sequence (A0A8M9Q308 1-485): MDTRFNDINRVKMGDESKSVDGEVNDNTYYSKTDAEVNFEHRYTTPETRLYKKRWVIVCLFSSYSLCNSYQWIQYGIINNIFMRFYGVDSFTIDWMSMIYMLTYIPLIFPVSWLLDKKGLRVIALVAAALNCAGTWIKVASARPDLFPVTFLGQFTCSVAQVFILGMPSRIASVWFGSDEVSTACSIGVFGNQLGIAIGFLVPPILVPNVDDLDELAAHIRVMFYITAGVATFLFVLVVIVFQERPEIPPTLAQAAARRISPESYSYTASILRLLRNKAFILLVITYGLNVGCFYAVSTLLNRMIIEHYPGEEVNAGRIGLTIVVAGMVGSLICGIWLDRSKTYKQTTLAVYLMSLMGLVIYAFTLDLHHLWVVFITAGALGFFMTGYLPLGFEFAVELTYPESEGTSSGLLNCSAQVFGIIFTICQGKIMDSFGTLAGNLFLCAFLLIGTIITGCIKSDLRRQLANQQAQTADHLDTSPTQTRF
The note with it: 100 µM choline, DMEM with 10% FBS, 37 °C, 1 h; labelled compound.

Another data set concerns the target T2, MeMfsd7c (Oryzias latipes, UniProt H2LZ31).
T2 construct: gene flvcr2b
T2 sequence (H2LZ31 1-532): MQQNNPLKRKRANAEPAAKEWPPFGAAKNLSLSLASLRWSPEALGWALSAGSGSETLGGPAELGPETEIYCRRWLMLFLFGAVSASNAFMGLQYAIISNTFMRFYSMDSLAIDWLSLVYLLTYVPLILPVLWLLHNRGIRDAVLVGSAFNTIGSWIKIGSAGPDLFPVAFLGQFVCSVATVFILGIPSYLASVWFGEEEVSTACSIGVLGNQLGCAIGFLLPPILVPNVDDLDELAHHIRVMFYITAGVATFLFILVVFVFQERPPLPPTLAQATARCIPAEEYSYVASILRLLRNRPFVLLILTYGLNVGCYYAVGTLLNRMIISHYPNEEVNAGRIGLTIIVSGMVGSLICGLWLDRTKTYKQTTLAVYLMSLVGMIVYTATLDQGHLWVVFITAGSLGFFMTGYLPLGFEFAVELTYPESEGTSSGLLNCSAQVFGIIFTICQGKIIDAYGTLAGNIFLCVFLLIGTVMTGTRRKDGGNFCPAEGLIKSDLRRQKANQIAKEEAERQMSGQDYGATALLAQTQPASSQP
Conditions: 100 µM choline, DMEM with 10% FBS, 37 °C, 1 h; labelled compound.

The target in a further data set is T3, XeMfsd7c (Xenopus tropicalis, UniProt Q28EC5).
T3 construct: gene flvcr2
T3 sequence (Q28EC5 1-494): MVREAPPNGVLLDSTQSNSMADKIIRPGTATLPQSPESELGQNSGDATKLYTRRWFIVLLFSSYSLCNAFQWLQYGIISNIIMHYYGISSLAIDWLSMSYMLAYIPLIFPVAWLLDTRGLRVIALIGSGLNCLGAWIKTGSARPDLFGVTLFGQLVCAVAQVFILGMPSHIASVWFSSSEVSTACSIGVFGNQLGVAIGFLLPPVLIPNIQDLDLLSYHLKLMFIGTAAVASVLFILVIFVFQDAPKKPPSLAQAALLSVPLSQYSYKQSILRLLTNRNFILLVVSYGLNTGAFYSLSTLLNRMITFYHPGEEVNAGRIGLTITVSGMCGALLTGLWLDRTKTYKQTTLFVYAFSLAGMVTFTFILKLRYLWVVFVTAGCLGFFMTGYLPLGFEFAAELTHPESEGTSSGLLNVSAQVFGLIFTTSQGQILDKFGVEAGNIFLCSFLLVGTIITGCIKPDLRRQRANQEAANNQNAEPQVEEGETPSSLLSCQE
Conditions: 100 µM choline, DMEM with 10% FBS, 37 °C, 1 h; labelled compound.

In the next data set the target is T4, DaMfsd7c_a (Danio rerio, UniProt A0A0R4ILB2).
T4 construct: gene flvcr2a
T4 sequence (A0A0R4ILB2 1-470): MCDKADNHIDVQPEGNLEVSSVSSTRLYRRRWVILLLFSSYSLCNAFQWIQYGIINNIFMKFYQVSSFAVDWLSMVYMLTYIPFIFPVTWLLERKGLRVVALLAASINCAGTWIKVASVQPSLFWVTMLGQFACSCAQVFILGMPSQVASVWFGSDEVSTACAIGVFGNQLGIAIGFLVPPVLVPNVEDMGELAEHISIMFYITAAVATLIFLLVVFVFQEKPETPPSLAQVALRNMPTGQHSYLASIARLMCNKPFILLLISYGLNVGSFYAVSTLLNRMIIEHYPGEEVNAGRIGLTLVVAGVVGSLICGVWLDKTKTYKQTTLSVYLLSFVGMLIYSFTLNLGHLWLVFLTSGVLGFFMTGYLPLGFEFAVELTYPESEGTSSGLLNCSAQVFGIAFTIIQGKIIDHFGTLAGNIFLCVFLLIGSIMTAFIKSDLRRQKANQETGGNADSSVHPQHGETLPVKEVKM
The note with it: 100 µM choline, DMEM with 10% FBS, 37 °C, 1 h; labelled compound.

Substrate in data set [1]: C[N+](C)(C)CCO
The note with it: co-expressed human choline kinase A (hChKA), DMEM with 10% FBS, 37 °C, 60 min, labelled compound. The source says: [3H]choline uptake in transfected HEK293 cells on hMfsd7c (human MFSD7c, FLVCR2) | The kinetics (Km) and Vmax for choline import by human Mfsd7c under this condition

Substrate in data set [2]: C[N+](C)(C)CCO
The note with it: co-expressed human choline kinase A (hChKA), DMEM with 10% FBS, 37 °C, 60 min, labelled compound. The source says:
[3H]choline uptake in transfected HEK293 cells on hMfsd7c (human MFSD7c, FLVCR2) | The Km and Vmax for importing choline by S203Y mutant under this condition were […]
The source holds these as a separate data set.

Positions count from the first letter of the chain named. Numbers in names are those of the source.

As to `C[N+](C)(C)CCO` [choline], the “[3H]choline uptake in transfected HEK293 cells” value at DaMfsd7c_b, on MeMfsd7c, at XeMfsd7c and on DaMfsd7c_a was “these MFSD7c orthologs also exhibited choline transport activity” in each case.

B1: hMfsd7c (human MFSD7c, FLVCR2) (Homo sapiens) (protein)
chain: MVNEGPNQEESDDTPVPESALQADPSVSVHPSVSVHPSVSINPSVSVHPSSSAHPSALAQPSGLAHPSSSGPEDLSVIKVSRRRWAVVLVFSCYSMCNSFQWIQYGSINNIFMHFYGVSAFAIDWLSMCYMLTYIPLLLPVAWLLEKFGLRTIALTGSALNCLGAWVKLGSLKPHLFPVTVVGQLICSVAQVFILGMPSRIASVWFGANEVSTACSVAVFGNQLGIAIGFLVPPVLVPNIEDRDELAYHISIMFYIIGGVATLLLILVIIVFKEKPKYPPSRAQSLSYALTSPDASYLGSIARLFKNLNFVLLVITYGLNAGAFYALSTLLNRMVIWHYPGEEVNAGRIGLTIVIAGMLGAVISGIWLDRSKTYKETTLVVYIMTLVGMVVYTFTLNLGHLWVVFITAGTMGFFMTGYLPLGFEFAVELTYPESEGISSGLLNISAQVFGIIFTISQGQIIDNYGTKPGNIFLCVFLTLGAALTAFIKADLRRQKANKETLENKLQEEEEESNTSKVPTAVSEDHL
notes: full-length cDNA in pcDNA3.1, transiently expressed in HEK293 cells
As for B1, the Km (in general, the concentration of substrate that gives half-maximal velocity) in data set [1] was 100 µM.

B2: hMfsd7c (human MFSD7c, FLVCR2) (Homo sapiens; S203Y) (protein)
chain: B1 chain with S203Y
notes: as for B1
For the molecule B2, the Km in data set [2] is 1197 µM.
